Assay: oral bioavailability, hard gelatin capsules, minipig model
Type: in vivo
Details: plasma, 40 mg/kg
Description: The percentage of oral bioavailability was calculated using the following equation: % F=[AUCoral/Doseoral]/[AUCIV/DoseIV] Non-human Pharmacokinetic Studies.
Dexanabinol of high enantiomeric purity (lot # AC9001HU) filled in hard gelatin capsules have shown good oral bioavailability. A pharmacokinetic study for oral bioavailability of dexanabinol in large animals using the minipig model (the best animal model for oral absorption of drugs) was carried out. The animals (n=3) after 8 hours of food deprivation were administered orally with hard gelatin capsules containing dexanabinol of high enantiomeric purity at a dose of 40 mg/kg. Dexanabinol plasma levels were determined using a validated GC-MS assay up to 48 hours following administration. […] Pharmacokinetic analysis was done using the non-compartmental model analysis (WinNonlin software). Linear trapezoidal rule was used to compute AUC and AUMC.

CCCCCCC(C)(C)c1cc(O)c2c(c1)OC(C)(C)[C@H]1CC=C(CO)C[C@H]21 [dexanabinol, 1,1-dimethylheptyl-(3S,4S)-7-hydroxy-Δ^6-tetrahydrocannabinol] gave an AUC (n=3) of 4210 ng·h/mL, a Cmax (n=3) of 271 ± 102 ng/mL and an MRT (n=3) of 12.1 ± 1.15 h. For the same compound, the half-life (n=3) was 7.47 ± 1.06 h and the bioavailability (oral, n=3, read-out: % F (oral bioavailability compared to i.v. injection)) was about 12%.

Reference: patent publication US20070060636A1, “High enantiomeric purity dexanabinol for pharmaceutical compositions” (priority 2002, published 2007)
